# Experimental data taken from patent publication US10912814B2, “Combination formulation of three antiviral compounds” (priority 2016, dated 2021).
# How the values were obtained:
# Format in all cases: physicochemical
# [1] = Storage stability: appearance, assay/label strength (LS), total impurities/degradation products; settings: for I/D (%): tablets, desiccant study
# Experimental: In some embodiments, the film-coated tablets were packaged in 75 and 100 mL white HDPE bottles (Lots A and B, respectively, as described in Tables 11A, 11B) with 1 g silica gel desiccant canisters and a polyester fiber coil. The 75 and 100 mL HDPE bottles contained fourteen and twenty eight tablets, respectively. Each HDPE bottle was capped using a white, continuous thread, child-resistant polypropylene screw cap with an […], aluminum-faced line. The packaged tablets (14 and 28 counts) were evaluated for stability at 40° C./75% RH and 25° C./60% RH. Additionally, the 14-count bottles (without cap) were evaluated for stability under open conditions at 40° C./75% RH.
# For each of the impact studies, the sofosbuvir/velpatasvir SSD/voxilaprevir SSD tablets were packaged in a designated commercial packaging configuration (28-count, 100 mL HPDE bottle, coil, 1 g desiccant), and stored for 12 weeks at 25° C./60% RH and 40° C./75% RH. Tablets were also packaged in open containers (28-count, 100 mL HPDE bottle without cap) and stored for 4 weeks at 40° C./75% RH and for 1 week at 50° C./92% RH.
# The sofosbuvir/velpatasvir SSD/voxilaprevir SSD tablets were packaged in the designated commercial packaging configuration (28-count, 100 mL HPDE bottle, coil, 1 g desiccant), and stored for 6 months at 25° C./60% RH and 40° C./75% RH.
# [2] = Tablet dissolution in 50 mM sodium acetate buffer pH 5.0 with 2.0% w/v Polysorbate 80 and 0.001% w/v BHT, 75 rpm, 900 mL, 37° C., USP Type II
# Experimental: FIGS. 10-12 depict additional dissolution profiles for the sofosbuvir/velpatasvir SSD/voxilaprevir SSD tablets having the formulation described in Table 13 and which were used in phase 1, 2, and 3 clinical studies, where the dissolution testing was conducted at pH 5.0 acetate buffer containing 2.0% w/v polysorbate 80. Four batches of the sofosbuvir/velpatasvir SSD/voxilaprevir SSD tablets were tested, with Batch A manufactured at 100 kg and Batches B, C and D manufactured at 145 kg. All other aspects of the formulation and manufacturing process were otherwise equivalent. The four batches were packed in the same commercial configuration: 28 count, 100 mL HPDE bottle with 1 g silica gel desiccant canister and a polyester fiber coil. […] Moreover, for Batch A, the amount dissolved at 30 min remained between 98 and 100% for sofosbuvir, between 90 and 92% for velpatasvir SSD, and between 89 and 93% for voxilaprevir SSD. […] For Batch D, the amount dissolved at 30 min remained at 100% for sofosbuvir, between 90 and 91% for velpatasvir SSD, and between 89 and 91% for voxilaprevir SSD. Release of velpatasvir SSD and voxilaprevir SSD from the sofosbuvir/velpatasvir SSD/voxilaprevir SSD tablets associated with all four Batches was complete after 60 minutes.
# BCS classification = experiment: BCS classification
smiles,measurement,setting,value
"CC(C)OC(=O)C(C)N[P@](=O)(OC[C@H]1O[C@@H](n2ccc(=O)[nH]c2=O)[C@](C)(F)[C@@H]1O)Oc1ccccc1 (stereo in doubt) [Sofosbuvir, (S)-isopropyl 2-(((S)-(((2R,3R,4R,5R)-5-(2,4-dioxo-3,4-dihydropyrimidin-1(2H)-yl)-4-fluoro-3-hydroxy-4-methyltetrahydrofuran-2-yl)methoxy)(phenoxy)phosphoryl)amino)propanoate]",Total Imp./Deg. (%),"[1]; tablets Lot A, 25° C./60% RH Closed, 6 mo",0.0%
same,Total Imp./Deg. (%),"[1]; tablets Lot A, 40° C./75% RH Closed, 1 mo",0.0%
same,Total Imp./Deg. (%),"[1]; tablets Lot A, 40° C./75% RH Closed, 3 mo",0.0%
same,Total Imp./Deg. (%),"[1]; tablets Lot A, 40° C./75% RH Closed, 6 mo",0.0%
same,Total Imp./Deg. (%),"[1]; tablets Lot A, 40° C./75% RH Open, 1 mo",0.0%
same,Total Imp./Deg. (%),"[1]; tablets Lot A, 40° C./75% RH Open, 3 mo",0.0%
same,Total Imp./Deg. (%),"[1]; tablets Lot A, 40° C./75% RH Open, 6 mo",0.0%
same,Total Imp./Deg. (%),"[1]; tablets Lot A, Initial, 0 mo",0.0%
same,Total Imp./Deg. (%),"[1]; tablets Lot B, 25° C./60% RH Closed, 1 mo",0.0%
same,Total Imp./Deg. (%),"[1]; tablets Lot B, 25° C./60% RH Closed, 3 mo",0.0%
same,Total Imp./Deg. (%),"[1]; tablets Lot B, 25° C./60% RH Closed, 6 mo",0.0%
same,Total Imp./Deg. (%),"[1]; tablets Lot B, 40° C./75% RH Closed, 1 mo",0.0%
same,Total Imp./Deg. (%),"[1]; tablets Lot B, 40° C./75% RH Closed, 3 mo",0.0%
same,Total Imp./Deg. (%),"[1]; tablets Lot B, 40° C./75% RH Closed, 6 mo",0.0%
same,Total Imp./Deg. (%),"[1]; tablets Lot B, Initial, 0 mo",0.0%
same,total impurities/degradation products,"[1]; tablets from SSDs made with high-peroxide copovidone (544 ppm VEL SSD, 655 ppm VOX SSD)",0.0%
same,Total Imp./Deg. (%),"[1]; tablets from VEL SSD 7.0% / VOX SSD 3.2% water content, Initial, time 0",0.0%
same,Total Imp./Deg. (%),"[1]; tablets from VEL SSD 7.0% / VOX SSD 3.2% water content, closed, 1 g desiccant, 25° C./60% RH, 12 weeks",0.0%
same,Total Imp./Deg. (%),"[1]; tablets from VEL SSD 7.0% / VOX SSD 3.2% water content, closed, 1 g desiccant, 40° C./75% RH, 4 weeks",0.0%
same,Total Imp./Deg. (%),"[1]; tablets from VEL SSD 7.0% / VOX SSD 3.2% water content, closed, 1 g desiccant, 40° C./75% RH, 12 weeks",0.0%
same,Total Imp./Deg. (%),"[1]; tablets from VEL SSD 7.0% / VOX SSD 3.2% water content, open, no desiccant, 40° C./75% RH, 4 weeks",0.0%
same,total impurities/degradation products,"[1]; tablets from VEL SSD with 6.0% residual ethanol and VOX SSD with 2.1% residual acetone, all conditions",0.0%
same,total impurities/degradation products,"[1]; tablets from VEL SSD with 7.0% and VOX SSD with 3.2% water content, all conditions",0.0%
same,Total Imp./Deg. (%),"[1]; tablets from copovidone with 544 ppm (VEL SSD) / 655 ppm (VOX SSD) peroxides, Initial, time 0",0.0%
same,Total Imp./Deg. (%),"[1]; tablets from copovidone with 544 ppm (VEL SSD) / 655 ppm (VOX SSD) peroxides, closed, 1 g desiccant, 25° C./60% RH, 12 weeks",0.0%
same,Total Imp./Deg. (%),"[1]; tablets from copovidone with 544 ppm (VEL SSD) / 655 ppm (VOX SSD) peroxides, closed, 1 g desiccant, 40° C./75% RH, 4 weeks",0.0%
same,Total Imp./Deg. (%),"[1]; tablets from copovidone with 544 ppm (VEL SSD) / 655 ppm (VOX SSD) peroxides, closed, 1 g desiccant, 40° C./75% RH, 12 weeks",0.0%
same,Total Imp./Deg. (%),"[1]; tablets from copovidone with 544 ppm (VEL SSD) / 655 ppm (VOX SSD) peroxides, open, no desiccant, 40° C./75% RH, 4 weeks",0.0%
same,I/D (%),"[1]; closed, 1 g desiccant, 25° C./60% RH, 12 weeks",0.0%
same,I/D (%),"[1]; closed, 1 g desiccant, 25° C./60% RH, 24 weeks",0.0%
same,I/D (%),"[1]; closed, 1 g desiccant, 40° C./75% RH, 4 weeks",0.0%
same,I/D (%),"[1]; closed, 1 g desiccant, 40° C./75% RH, 12 weeks",0.0%
same,I/D (%),"[1]; closed, 1 g desiccant, 40° C./75% RH, 24 weeks",0.0%
same,I/D (%),"[1]; closed, no desiccant, 25° C./60% RH, 12 weeks",0.0%
same,I/D (%),"[1]; closed, no desiccant, 25° C./60% RH, 24 weeks",0.0%
same,I/D (%),"[1]; closed, no desiccant, 40° C./75% RH, 4 weeks",0.0%
same,I/D (%),"[1]; closed, no desiccant, 40° C./75% RH, 12 weeks",0.0%
same,I/D (%),"[1]; closed, no desiccant, 40° C./75% RH, 24 weeks",0.0%
same,Dissolved at 30 min (%),"[2]; Batch C tablets, closed 1 g desiccant, 30° C./75% RH, 6 months",99%
same,Dissolved at 30 min (%),"[2]; Batch C tablets, closed 1 g desiccant, 40° C./75% RH, 1 month",100%
same,Dissolved at 30 min (%),"[2]; Batch C tablets, closed 1 g desiccant, Initial, time 0",99%
same,Dissolved at 30 min (%),"[2]; tablets Batch A, 30° C./75% RH, 6 mo",100%
same,Dissolved at 30 min (%),"[2]; tablets Batch A, 40° C./75% RH, 3 mo",99%
same,Dissolved at 30 min (%),"[2]; tablets Batch A, Initial, 0 mo",98%
same,Dissolved at 30 min (%),"[2]; tablets Batch B, 40° C./75% RH, 6 mo",98%
same,amount dissolved at 30 min,[2]; tablets Batch D,100%
same,Dissolved at 30 min (%),"[2]; tablets Batch D, 40° C./75% RH, 1 mo",100%
same,"aqueous solubility, pH dependence",BCS classification,high and pH-independent aqueous solubility
